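Growth conditions: 96-well plates. Treatment: test compound, 48 hours, 5 concentrations. Analysis: linear interpolation between bracketing concentrations; unreached endpoints set to highest concentration. Abbreviation: GI50, concentration required for 50% inhibition of growth. Definition used: TGI = concentration required for complete inhibition of growth.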
How the values were obtained:
Test in all cases: DTP human tumour cell line panel, 48 h
HCT-15 colon = test system: HCT-15 colon
HT29 colon = test system: HT29 colon
LOX IMVI melanoma = test system: LOX IMVI melanoma
MOLT-4 leukemia = test system: MOLT-4 leukemia
NCI-H226 lung = test system: NCI-H226 lung
NCI-H23 lung = test system: NCI-H23 lung
OVCAR-8 ovarian = test system: OVCAR-8 ovarian
SK-OV-3 ovarian = test system: SK-OV-3 ovarian
SNB-75 CNS = test system: SNB-75 CNS
UACC-62 melanoma = test system: UACC-62 melanoma

Row | Structure (SMILES) | GI50 (HCT-15 colon) [µM] | TGI (HCT-15 colon) [µM] | GI50 (HT29 colon) [µM] | TGI (HT29 colon) [µM] | GI50 (LOX IMVI melanoma) [µM] | TGI (LOX IMVI melanoma) [µM] | GI50 (MOLT-4 leukemia) [µM] | TGI (MOLT-4 leukemia) [µM] | GI50 (NCI-H226 lung) [µM] | TGI (NCI-H226 lung) [µM] | GI50 (NCI-H23 lung) [µM] | TGI (NCI-H23 lung) [µM] | GI50 (OVCAR-8 ovarian) [µM] | TGI (OVCAR-8 ovarian) [µM] | GI50 (SK-OV-3 ovarian) [µM] | TGI (SK-OV-3 ovarian) [µM] | GI50 (SNB-75 CNS) [µM] | TGI (SNB-75 CNS) [µM] | GI50 (UACC-62 melanoma) [µM] | TGI (UACC-62 melanoma) [µM]
1 | O=C(N/N=C/C=C/c1ccc([N+](=O)[O-])o1)c1cc2ccccc2cc1O | 0.465 | 4.23 | 2.15 | 7.05 | 0.356 | 1.58 | 1.18 | 7.3 | 1.64 | 4.78 | 1.02 | 2.75 | 1.45 | 21.7 | 3.36 | 38.5 | 1.97 | 6.12 | 1.03 | 2.77
2 | O=S(Nc1ccccc1)c1ccc(N2CCOCC2)cc1 (centres undefined) | – | > 100 | – | > 100 | – | > 100 | – | > 100 | – | > 100 | – | > 100 | – | > 100 | – | – | – | – | – | 99.3
3 | COc1cc([C@@H]2c3cc4c(cc3[C@@H](c3c(O)cc(O)c5c3O[C@H](c3ccc(O)c(O)c3)[C@@H](O)C5)[C@H]3COC(=O)[C@H]23)OCO4)cc(OC)c1OC | – | > 100 | – | 63.9 | – | > 100 | – | > 100 | – | – | – | > 100 | – | > 100 | – | 3.36 | – | – | – | 3.13
4 | CCNCCCn1c2c(c3ccc(Cl)cc3c1=O)C(=O)c1cc(OC)cnc1-2 | 1.02 | 2.5 | 0.327 | 2.03 | – | – | 0.0384 | 1.62 | 1.4 | 5.04 | 0.539 | 2.47 | 0.694 | 3.22 | 0.475 | 1.94 | 0.262 | 1.64 | 0.532 | 21.4
5 | CCOC(=O)CCC(NC(=O)OCc1ccccc1)C(=O)NC(CCC(=O)OCC)C(=O)NC(CCC(=O)OCC)C(=O)NC(CCC(=O)OCC)C(=O)NC(CCC(=O)OCC)C(=O)NC(CCC(=O)OCC)C(=O)NC(CCC(=O)OCC)C(=O)OCC (centres undefined) | – | > 100 | – | > 100 | – | > 100 | – | > 100 | – | > 100 | – | > 100 | – | > 100 | – | – | – | > 100 | – | > 100
6 | CCOP(=O)(/C=C\n1cc(C)c(=O)[nH]c1=O)OCC | – | > 100 | – | > 100 | – | > 100 | – | > 100 | – | > 100 | – | > 100 | – | > 100 | – | > 100 | – | > 100 | – | > 100
7 | O=C(NCCCCCCCCCCCCNC(=O)Nc1cccc2ccccc12)Nc1cccc2ccccc12 | – | 36.8 | – | 40.8 | – | 34.2 | – | 42.2 | – | – | – | 31.5 | – | 53.6 | – | – | – | 32.7 | – | 26.7
8 | CCOC(=O)c1nc2ccc(C(F)(F)F)cc2nc1Oc1cc(OC)c(OC)c(OC)c1 | – | > 100 | – | > 100 | – | > 100 | – | > 100 | – | 81.9 | – | – | – | > 100 | – | > 100 | – | 68.6 | – | > 100
9 | Cc1ccc(S(=O)(=O)n2c3ccc(Br)cc3c3nc4ccccc4nc32)cc1 | – | > 100 | – | > 100 | – | > 100 | – | > 100 | – | 0.879 | – | > 100 | – | > 100 | – | – | – | > 100 | – | > 100
